Results reported in PubChem BioAssay (NCI).
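Compound exposure: 48 hours, 5 concentrations, 96-well plates. TGI marks complete inhibition of growth.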

Assays:
Assay in all cases: NCI tumour cell line growth inhibition, 48 h
[1] = test system: NCI-H226 lung
[2] = test system: A498 renal
[3] = test system: SK-OV-3 ovarian
[4] = test system: HOP-18 NSCLC
[5] = test system: OVCAR-5 ovarian
[6] = test system: UACC-257 melanoma
[7] = test system: SNB-75 CNS
[8] = test system: SN12C renal
[9] = test system: UO-31 renal
[10] = test system: SNB-19 CNS
[11] = test system: NCI-H522 lung
[12] = test system: IGROV1 ovarian
[13] = test system: SF-268 CNS
[14] = test system: MALME-3M melanoma
[15] = test system: LXFL 529 NSCLC
[16] = test system: MOLT-4 leukemia
[17] = test system: NCI-H460 lung
[18] = test system: HCC-2998 colon
[19] = test system: OVCAR-3 ovarian
[20] = test system: M14 melanoma
[21] = test system: CAKI-1 renal
[22] = test system: HL-60(TB) leukemia
[23] = test system: SK-MEL-5 melanoma
[24] = test system: K-562 leukemia
[25] = test system: U251 CNS
[26] = test system: M19-MEL melanoma
[27] = test system: SK-MEL-2 melanoma
[28] = test system: LOX IMVI melanoma
[29] = test system: HCT-116 colon
[30] = test system: DMS 273 small cell lung
[31] = test system: KM12 colon
[32] = test system: OVCAR-4 ovarian
[33] = test system: 786-0 renal
[34] = test system: HOP-92 NSCLC
[35] = test system: HCT-15 colon
[36] = test system: OVCAR-8 ovarian
[37] = test system: ACHN renal
[38] = test system: DLD-1 colon
[39] = test system: A549 NSCLC
[40] = test system: SF-539 CNS
[41] = test system: SR leukemia
[42] = test system: CCRF-CEM leukemia
[43] = test system: RPMI-8226 leukemia
[44] = test system: DMS 114 small cell lung
[45] = test system: SW-620 colon
[46] = test system: XF 498 CNS
[47] = test system: KM20L2 colon
[48] = test system: NCI-H23 lung
[49] = test system: COLO 205 colon
[50] = test system: EKVX NSCLC
[51] = test system: UACC-62 melanoma
[52] = test system: HOP-62 NSCLC

Measured: TGI

CC(=O)Nc1ccc(C(=O)NN2C(=O)C(Cl)C2c2cc(Br)cc(Br)c2O)cc1 (configuration not stated)
> 100 µM: all assays above
